Measurements as given in patent US20220017541A1, “INHIBITORS OF ARGINASE” (Black Belt Tx Ltd, priority 2018, published 2022).

Columns and labels:
recombinant human ARG2 = biological target: T1, recombinant human ARG2 (Homo sapiens, UniProt P78540); test: Arginase enzymatic assay in vitro, recombinant human ARG2 (colorimetric urea detection); format: biochemical; details: recombinant human arginase 2; read-out: IC50 Inh rhARG2
T1 construct: purchased BPS Bioscience 71659
T1 sequence (P78540 23-354): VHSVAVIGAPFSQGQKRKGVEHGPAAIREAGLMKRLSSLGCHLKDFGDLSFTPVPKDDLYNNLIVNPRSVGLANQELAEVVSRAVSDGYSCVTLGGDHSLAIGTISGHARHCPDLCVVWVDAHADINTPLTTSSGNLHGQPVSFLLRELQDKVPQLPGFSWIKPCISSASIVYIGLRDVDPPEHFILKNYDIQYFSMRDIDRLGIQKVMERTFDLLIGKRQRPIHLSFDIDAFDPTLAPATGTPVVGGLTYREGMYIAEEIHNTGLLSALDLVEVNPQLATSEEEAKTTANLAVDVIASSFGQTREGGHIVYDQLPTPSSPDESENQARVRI
Source text: (§1) Arginase catalyzes the hydrolysis of L-arginine into L-ornithine and urea. Urea amount produced by this reaction can be detected using a colorimetric assay and used as an indirect measurement of arginase activity. An adapted protocol from (Baggio, R., et al., J Pharmacol Exp Ther, 1999. 290(3): p. 1409-16) was used for the testing the ability of exemplary compounds of the invention to inhibit arginase enzymes from a variety of sources including recombinant human ARG1 and 2, lysates of human red blood cells (RBC) and intact murine macrophages, as described below.
(§2) Compounds of the invention were prepared from powder as 10 mM stock solutions in DMSO and stored in presence of N2 neutral atmosphere at −80° C. For IC50 determination and just before the assay, exemplary compounds were successively diluted to get the following concentrations: 210, 70, 21, 7, 2.1, 0.7, 0.21, 0.07, 0.021, 0.007, 0.0021 and 0.0007 μM (i.e., final concentrations in the wells of 30, 10, 3, 1, 0.3, 0.1, 0.03, 0.01, 0.003, 0.001, 0.0003, 0.0001 μM).
(§3) Assays were run in clear flat bottom 96-well plates (Nunclon, Cat. No. #167008) adding in each well the following solutions in this order: (1) 10 μl of Tris-HCl solution supplemented with 0.1% bovine serum albumin (BSA) containing 1.563 μg/ml recombinant human ARG1 (R&D System, Cat. No. #5868-AR-010), (2) 30 μl of Tris-HCl buffer containing 10 mM MnCl2 and (3) 10 μL of a pre-dilution of each test article or DMSO (vehicle). Compounds were allowed to interact with the enzyme-cofactor complex pre-incubating the plate at 37° C. for 30 min. To start the reaction, 20 μl of 50 mM L-arginine (Sigma Aldrich Cat. #A5006-100G) were added to each well in exception of the blank reaction (see below). All reactions were allowed to happen for 1 h at 37° C. To detect the urea production, reactions were stopped by adding 200 μl of a mixture of reagent A (4 mM o-phthalaldehyde in 50 mM Boric Acid, 1 M Sulfuric Acid, 0.03% Brij-35 (w/v)) and reagent B (4 mM N-(1-naphthyl)ethylenediamine in 50 mM Boric Acid, 1 M Sulfuric Acid, 0.03% Brij-35 (w/v)) in equal proportion. Color product was developed for 1 h at room temperature (RT) protected from light and then absorbance at 520 nm was measured using a Multifunction Microplate Reader (Synergy 4, Bioteck). Blank reactions were carried out by adding the L-arginine substrate only after the addition of mixture A-B. All reactions were carried out in duplicates.
(§4) The inhibition of urea production was calculated subtracting the absorbance from the blank reaction (zero enzymatic urea production) to the absorbance from all reactions and it was expressed as the percentage of the absorbance from the reaction containing the test article with respect to the absorbance from vehicle reaction (maximum of urea production).
For testing inhibitory activity over recombinant human arginase II, 10 μl of Tris-HCl solution supplemented with 0.1% BSA containing 1.5 μg/ml recombinant human ARG2 (BPS Bioscience, Cat. No. #71659) was used instead of ARG1.

recombinant human ARG1 = biological target: T2, recombinant human ARG1 (Homo sapiens, UniProt P05089); test: Arginase enzymatic assay in vitro, recombinant human ARG1 (colorimetric urea detection); format: biochemical; details: recombinant human arginase 1; read-out: IC50 Inh rhARG1
T2 construct: purchased R&D System 5868-AR-010
T2 sequence (P05089 1-322): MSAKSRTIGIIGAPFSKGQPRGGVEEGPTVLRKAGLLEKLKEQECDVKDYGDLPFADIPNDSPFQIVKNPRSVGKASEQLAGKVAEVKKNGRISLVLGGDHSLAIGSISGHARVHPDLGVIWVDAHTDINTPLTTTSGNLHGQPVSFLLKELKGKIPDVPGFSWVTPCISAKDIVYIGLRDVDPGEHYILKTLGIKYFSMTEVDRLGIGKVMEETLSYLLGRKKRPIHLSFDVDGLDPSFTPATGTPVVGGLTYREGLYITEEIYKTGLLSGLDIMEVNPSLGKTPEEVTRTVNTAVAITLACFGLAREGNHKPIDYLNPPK
Source text: as §1, §2, §3, §4

[1] = biological target: T3, arginase activity in intact BMM-M2 cells (Mus musculus, UniProt Q61176); test: Cell-based arginase assay: urea production by cultured BMM-M2 cells; details: 10 μM test compound, 24 h; for inhibition at 10 µM: read-out: Inh. urea production @10 μM (%)
T3 construct: endogenous in cells; host or cells: bone-marrow derived macrophages from male C57BL/6 mice, polarised to M2 with IL-4
T3 sequence (Q61176 1-323): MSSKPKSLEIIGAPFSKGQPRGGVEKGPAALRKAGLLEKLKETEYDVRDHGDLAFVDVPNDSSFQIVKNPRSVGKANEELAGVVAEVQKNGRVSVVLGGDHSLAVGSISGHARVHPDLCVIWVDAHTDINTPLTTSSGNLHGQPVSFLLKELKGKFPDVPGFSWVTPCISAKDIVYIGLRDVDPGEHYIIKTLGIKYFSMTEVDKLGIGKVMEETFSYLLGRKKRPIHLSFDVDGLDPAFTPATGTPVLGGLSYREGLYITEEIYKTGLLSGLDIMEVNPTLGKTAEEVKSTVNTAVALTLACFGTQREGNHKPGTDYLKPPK
Protocol: Murine bone-marrow derived macrophages (BMM) represent a convenient in vitro model that enables differentiation of these cells towards M1 or M2 macrophages. Briefly, male C57BL/6 mice 7-8 weeks old were euthanized by carbon dioxide asphyxiation. Femur and tibiae bones were removed under aseptic conditions and collected in a plate containing sterile ice-cold PBS 1×. After sterilization of bones in 70% ethanol during 1 min, bones were placed into a clean Petri dish containing fresh sterile ice-cold PBS 1×. The ends of each bone were cut and the marrow cavity was flushed using forceps and syringes filled with pre-warmed complete α-MEM growing medium (α-MEM without red phenol (Life Technologies, Cat. No. #41061-029) supplemented with 10% FBS, penicillin and streptomycin). Bone marrow (BM) cells were harvested in a 15 ml clean tube and centrifuged at 400 g for 8 min at RT. Supernatant was discarded and BM pellet was re-suspended in 5 ml Ammonium-Chloride-Potassium (ACK) buffer for 5 minutes at RT to lysis RBC. BM cell suspension was centrifuged at 400 g for 8 min at RT. Supernatant was discarded and BM cell pellet was re-suspended in complete α-MEM growing medium and passed through a 70 μm cell restrainer to eliminate solid contaminates and cellular aggregates. BM cells were seeded in 8 ml of complete α-MEM growing medium supplemented with 100 ng/ml recombinant mouse M-CSF (R&D Systems, Cat. No. #416-ML-050) in 100-mm dishes. BM cells were cultured overnight to get rid of contaminating stromal cells in a humidified incubator with 5% CO2 at 37° C. At the following day, non-adherent cells were collected in a clean 15-ml tube and centrifuged at 400 g for 8 min at RT. Cell pellet was re-suspended in complete α-MEM growing medium and counted using a hemocytometer Neubauer's chamber. Hematopoietic precursor cells were differentiated into BMM in presence of complete α-MEM growing medium supplemented 50 ng/ml M-CSF for 3 days. Finally to polarize BMM towards M2 phenotype, cells were incubated in presence 20 ng/ml of recombinant mouse IL-4 (R&D Systems, Cat. No. #404-ML-010) added to fresh complete α-MEM growing medium supplemented 50 ng/ml M-CSF for 24 h.
At the day of the experiment, BMM-M2 were treated for 24 h with vehicle (DMSO) or compounds of the invention at 1 and 10 μM prepared in fresh complete α-MEM growing medium supplemented 50 ng/ml M-CSF, 20 ng/ml IL-4 and 10 mM L-arginine (Cat. No. #A5006, Sigma Aldrich). At the next day, 70 μl aliquots of each treated culture media (supernatants) were transferred into a clear 96-well plate. Measurements of urea produced by BMM-M2 were performed using the adapted protocol detailed in Example B1. Wells without BMM-M2 containing only treatment media (vehicle) were used to determine the zero cell-derived urea production (blank). All treatments were carried out in triplicates.
The inhibition of urea production was calculated subtracting the absorbance from the blank to the absorbance from all treatments and it was expressed as the percentage of the absorbance from the reaction containing the test article treatment with respect to the absorbance from vehicle treatment (maximum of urea production).

IC50 (recombinant human ARG2) [nM] | IC50 (recombinant human ARG1) [nM] | inhibition at 10 µM [1] [%] | Compound | Inh. urea production @10 μM (%) [1]
500 to 5000 | < 500 |  | NC(CCCCB(O)O)(C(=O)O)C1CCN(C2CCCc3c(Br)cccc32)CC1 (single isomer, unassigned) [Compound 86, 2-amino-6-borono-2-(1-(5-bromo-1,2,3,4-tetrahydronaphthalen-1-yl)piperidin-4-yl)hexanoic acid] | ++ (25% < % inhibition < 15% at 10 μM test compound)
< 500 | < 500 | > 25 | NC(CCCCB(O)O)(C(=O)O)C1CCN(C2CCCc3cc(-c4ccccc4)ccc32)CC1 (single isomer, unassigned) [Compound 87, 2-amino-6-borono-2-(1-(6-phenyl-1,2,3,4-tetrahydronaphthalen-1-yl)piperidin-4-yl)hexanoic acid] | 
< 500 | < 500 | > 25 | NC(CCCCB(O)O)(C(=O)O)C1CCN(C2CCc3ccc(F)cc32)CC1 (single isomer, unassigned) [Compound 88, 2-amino-6-borono-2-(1-(6-fluoro-2,3-dihydro-1H-inden-1-yl)piperidin-4-yl)hexanoic acid] | 
500 to 5000 | < 500 |  | CC(c1ccc(F)c(Cl)c1)N1CCC(C(N)(CCCCB(O)O)C(=O)O)CC1 (single isomer, unassigned) [Compound 89, 2-amino-6-borono-2-(1-(1-(3-chloro-4-fluorophenyl)ethyl)piperidin-4-yl)hexanoic acid] | ++ (25% < % inhibition < 15% at 10 μM test compound)
500 to 5000 | 500 to 5000 |  | CCCC(c1ccccc1)N1CCC(C(N)(CCCCB(O)O)C(=O)O)CC1 (single isomer, unassigned) [Compound 90, 2-amino-6-borono-2-[1-(1-phenylbutyl)-4-piperidyl]hexanoic acid] | 

Further lines, the compound ahead of its results:

Compound | IC50 (recombinant human ARG2) [nM] | IC50 (recombinant human ARG1) [nM] | inhibition at 10 µM [1] [%] | Inh. urea production @10 μM (%) [1]
NC(CCCCB(O)O)(C(=O)O)C1CCN(C2CCCc3ccccc32)CC1 (single isomer, unassigned) [Compound 7, 2-amino-6-borono-2-(1-(1,2,3,4-tetrahydronaphthalen-1-yl)piperidin-4-yl)hexanoic acid] | 500 to 5000 | < 500 |  | 
NC(CCCCB(O)O)(C(=O)O)C1CCN(C2CCCc3ccccc32)CC1 (single isomer, unassigned) [Compound 8, 2-amino-6-borono-2-(1-(1,2,3,4-tetrahydronaphthalen-1-yl)piperidin-4-yl)hexanoic acid] | < 500 | < 500 |  | 
NC(CCCCB(O)O)(C(=O)O)C1CCN(C2CCc3cc(F)c(F)cc32)CC1 (single isomer, unassigned) [Compound 19, 2-amino-6-borono-2-[1-(5,6-difluoroindan-1-yl)-4-piperidyl]hexanoic acid] | < 500 | < 500 |  | ++ (25% < % inhibition < 15% at 10 μM test compound)
NC(CCCCB(O)O)(C(=O)O)C1CCN(C2Cc3ccccc3C2)CC1 (single isomer, unassigned) [Compound 24, 2-amino-6-borono-2-(1-(2,3-dihydro-1H-inden-2-yl)piperidin-4-yl)hexanoic acid] | 500 to 5000 | 500 to 5000 |  | ++ (25% < % inhibition < 15% at 10 μM test compound)
NC(CCCCB(O)O)(C(=O)O)C1CCN(C2Cc3ccccc3C2)CC1 (single isomer, unassigned) [Compound 25, 2-amino-6-borono-2-(1-(2,3-dihydro-1H-inden-2-yl)piperidin-4-yl)hexanoic acid] | > 5000 | > 5000 |  | 
NC(CCCCB(O)O)(C(=O)O)C1CCN(C2CCc3ccc(C(F)(F)F)cc32)CC1 (single isomer, unassigned) [Compound 35, 2-amino-6-borono-2-[1-[6-(trifluoromethyl)indan-1-yl]-4-piperidyl]hexanoic acid] | < 500 | < 500 | < 15 | 
NC(CCCCB(O)O)(C(=O)O)C1CCN(C2Cc3ccccc3C2)CC1 (stereo not shown) [Compound 23, 2-amino-6-borono-2-(1-(2,3-dihydro-1H-inden-2-yl)piperidin-4-yl)hexanoic acid] | > 5000 | > 5000 |  | 
